In ChEMBL document CHEMBL1799928, “New 2-thioether-substituted apomorphines as potent and selective dopamine D₂ receptor agonists” (Eur J Med Chem, 2011):

Experiments:
D(2) dopamine receptor [1] = target: T1, D(2) dopamine receptor (Rattus norvegicus, UniProt P61169); experiment: Agonist activity at rat D2 dopamine receptor expressed in CHOK1 cells assessed as [35S]GTPgammaS binding after 90 mins by liquid scintillation counter; format: functional, cell-based, CHO-K1
[2] = Selectivity ratio of Ki for rat D2 dopamine receptor to Ki for human D1 dopamine receptor
D(1A) dopamine receptor = D(1A) dopamine receptor (Homo sapiens, UniProt P21728); experiment: Displacement of [3H]SCH23390 from human D1 dopamine receptor expressed in Ltk fibroblast cells after 60 mins by liquid scintillation counter; format: cell-based
D(2) dopamine receptor [3] = target: T1, D(2) dopamine receptor; experiment: Displacement of [3H]raclopride from rat D2 dopamine receptor expressed in CHOK1 cells after 90 mins by liquid scintillation counter scintillation counter; format: cell-based, CHO-K1

T1 sequence (P61169 whole entry): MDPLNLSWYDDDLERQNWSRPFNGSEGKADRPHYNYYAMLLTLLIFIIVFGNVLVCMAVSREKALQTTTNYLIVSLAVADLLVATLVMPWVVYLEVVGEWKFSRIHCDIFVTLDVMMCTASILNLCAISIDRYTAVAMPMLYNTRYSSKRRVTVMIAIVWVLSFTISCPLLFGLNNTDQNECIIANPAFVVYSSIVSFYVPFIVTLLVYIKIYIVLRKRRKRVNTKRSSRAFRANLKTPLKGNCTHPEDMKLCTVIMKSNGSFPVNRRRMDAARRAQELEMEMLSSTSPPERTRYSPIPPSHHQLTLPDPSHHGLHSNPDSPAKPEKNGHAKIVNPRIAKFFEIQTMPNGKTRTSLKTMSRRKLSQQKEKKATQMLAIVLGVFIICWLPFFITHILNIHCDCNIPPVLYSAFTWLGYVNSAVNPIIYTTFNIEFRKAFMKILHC
Sequence of D(1A) dopamine receptor (P21728 whole entry): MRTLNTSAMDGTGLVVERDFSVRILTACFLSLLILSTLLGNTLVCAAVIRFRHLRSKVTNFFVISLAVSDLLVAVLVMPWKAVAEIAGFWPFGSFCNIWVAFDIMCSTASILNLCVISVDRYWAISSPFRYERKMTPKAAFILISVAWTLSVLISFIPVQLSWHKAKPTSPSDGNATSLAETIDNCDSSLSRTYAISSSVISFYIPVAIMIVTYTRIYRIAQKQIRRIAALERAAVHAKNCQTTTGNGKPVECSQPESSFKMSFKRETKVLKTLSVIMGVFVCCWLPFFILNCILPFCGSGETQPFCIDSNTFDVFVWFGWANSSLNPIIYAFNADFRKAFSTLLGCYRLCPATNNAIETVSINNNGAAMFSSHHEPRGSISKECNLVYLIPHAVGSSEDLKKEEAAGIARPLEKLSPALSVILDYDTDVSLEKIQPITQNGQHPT

| EC50 (D(2) dopamine receptor [1]) | Ratio Ki [2] | Ki (D(1A) dopamine receptor) | Ki (D(2) dopamine receptor [3]) | SMILES |
| --- | --- | --- | --- | --- |
| 24 nM | 38 | 380 nM | 10 nM | COC(=O)[C@@H](N)CSc1cc2c3c(c1)-c1c(ccc(O)c1O)C[C@H]3N(C)CC2 |
| – | – | 4200 nM | – | CN1CCc2cc(SC[C@H](N)C(=O)O)cc3c2[C@H]1Cc1ccc(O)c(O)c1-3 |
| – | – | 141 nM | – | CN1CCc2cc(SC[C@@H](N)C(=O)O)cc3c2[C@H]1Cc1ccc(O)c(O)c1-3 |
| 820 nM | 47 | 2200 nM | 580 nM | CN1CCc2cc(Sc3ccccc3)cc3c2[C@H]1Cc1ccc(O)c(O)c1-3 |
| 16 nM | 135 | 1300 nM | 9.6 nM | CN1CCc2cc(SCCN)cc3c2[C@H]1Cc1ccc(O)c(O)c1-3 |
| 383 nM | 0.3 | 140 nM | 415 nM | CN1CCc2c3c(cc4c2[C@H]1Cc1ccc(O)c(O)c1-4)SCCC3=O |

| SMILES | EC50 (D(2) dopamine receptor [1]) | Ratio Ki [2] | Ki (D(1A) dopamine receptor) | Ki (D(2) dopamine receptor [3]) |
| --- | --- | --- | --- | --- |
| CN1CCc2cc(SCCC(=O)O)cc3c2[C@H]1Cc1ccc(O)c(O)c1-3 | 148 nM | 0.4 | 150 nM | 400 nM |
